# Laboratory results published in publication PMC9743128, “Phenotype-based screening rediscovered benzopyran-embedded microtubule inhibitors as anti-neuroinflammatory agents by modulating the tubulin–p65 interaction” (Experimental & Molecular Medicine, 2022).
# Test system: p65 nuclear translocation in J774A.1 and RAW264.7 cells
# Assay: p65 nuclear translocation by immunofluorescence staining
# Type: cell-based, murine
# Conditions: 10 μM for 1 h, then LPS; LPS alone 80%, basal 40%
# Experimental: To monitor p65 translocation, J774A.1 cells were treated with compounds for 1 h, followed by LPS (100 ng/ml) treatment for 30 min. The cells were fixed with 4% paraformaldehyde (Sigma; #158127) in PBS (w/v) for 30 min at room temperature. After washing with 1× PBS (Welgene; ML008-02) three times, the fixed cells were permeabilized with PBS containing 0.1% Triton X-100 for 10 min. The cells were washed with 1× PBS three times and then blocked with 4% bovine serum albumin (MP Biomedicals; #0216006980) in PBS (w/v) for 1 h. The cells were incubated with mouse anti-p65 antibody (Santa Cruz; sc-8008, 1:200 diluted in 1% BSA–PBS) at 4 °C overnight and washed with PBS three times. FITC-labeled goat anti-mouse IgG antibody (Abcam; ab6785, 1:200 diluted in 1% BSA–PBS) was added to the sample and incubated for 1 h at room temperature. The remaining antibodies were finally washed three times with PBS. Nuclei were stained with Hoechst 33342 (Thermo; #62249). The cellular p65 proteins were imaged by fluorescence microscopy (GE Healthcare; Delta Vision) and quantified by the line profiling method.
# During activation of the NF-κB signaling pathway, IκB is phosphorylated and degraded by proteasomes. The released p65 from IκB is translocated to the nucleus, inducing the transcription of target genes for inflammatory responses. Therefore, we monitored the translocation of p65 upon SB26019 treatment in J774A.1 and RAW264.7 murine macrophage cells stained with fluorescently labeled antibodies. […]
structure (smiles),measurement,value
COc1ccc2c(c1O)OC(C)(C)C=C2c1cccc2c1oc1ccccc12 [Compound 8],p65 nuclear translocation in the presence of LPS,< 60%
